Measured values from US11690824B2, “Antibacterial compounds” (THE GENERAL HOSPITAL CORPORATION, priority 2018, dated 2023).
In brackets after ≈: the same amount, converted by molar mass. Where two headings read alike, the source gives them in different places.

Experiments:
S. aureus ATCC 33591 = assay: MIC assay; format: cell-based; conditions: Staphylococcus aureus
Source text: (§1) Bacterial strains, growth conditions, and persister isolation. Methicillin-resistant S. aureus strains, MW2 BAA-1707, ATCC 33591, and JE2, methicillin-susceptible S. aureus strains, NCTC 8325, Newman, and ATCC 29213, vancomycin-resistant S. aureus strain, VRS1, Enterococcus faecium E007, vancomycin-resistant E. faecium strains, C68,^7 WB312, and WC196, Klebsiella pneumoniae WGLW2 (BEI Resources, Manassas, Va., USA), Acinetobacter baumannii ATCC 17978, Pseudomonas aeruginosa PA14, and Enterobacter aerogenes ATCC 13048 were used to test antimicrobial activity (Table 1). S. aureus strains were grown in tryptic soy broth (TSB) (BD, Franklin Lakes, N.J., USA), and E. faecium was grown in brain-heart infusion (BHI) broth (BD, Franklin Lakes, N.J., USA) at 37° C. K. pneumoniae, A. baumannii, P. aeruginosa, and E. aerogenes were grown in Luria Bertani (LB) broth (BD, Franklin Lakes, N.J., USA) at 37° C.
(§2) Minimal inhibitory concentration (MIC) assay. The MICS of antibiotics were determined by the standard micro-dilution method recommended by the Clinical and Laboratory Standards Institute. MIC assays were conducted in biological triplicate.

S. aureus JE2 = assay: MIC assay; format: cell-based; conditions: Staphylococcus aureus
Source text: as §1, §2

S. aureus NCTC 8325 = assay: MIC assay; format: cell-based; conditions: Staphylococcus aureus
Source text: as §1, §2

S. aureus Newman = assay: MIC assay; format: cell-based; conditions: Staphylococcus aureus, read-out: Minimum inhibitory concentration
Source text: as §1, §2

S. aureus VRS1 = assay: MIC assay; format: cell-based; conditions: Staphylococcus aureus
Source text: as §1, §2

E. faecium C68 = assay: MIC assay; format: cell-based, Enterococcus faecium; conditions: Enterococcus faecium
Source text: as §1, §2

E. faecium WB312 = assay: MIC assay; format: cell-based, Enterococcus faecium; conditions: Enterococcus faecium
Source text: as §1, §2

E. faecium WC196 = assay: MIC assay; format: cell-based, Enterococcus faecium; conditions: Enterococcus faecium
Source text: as §1, §2

E.faecium E007 = assay: MIC assay; format: cell-based, Enterococcus faecium; conditions: Enterococcus faecium
Source text: as §1, §2

K. pneumoniae WGLW2 = assay: MIC assay; format: cell-based, Klebsiella pneumoniae; conditions: Klebsiella pneumoniae
Source text: as §1, §2

A. baumannii ATCC 17978 = assay: MIC assay; format: cell-based, Acinetobacter baumannii; conditions: Acinetobacter baumannii
Source text: as §1, §2

P. aeruginosa PA14 = assay: MIC assay; format: cell-based, Pseudomonas aeruginosa; conditions: Pseudomonas aeruginosa
Source text: as §1, §2

E. aerogenes ATCC 13048 = assay: MIC assay; format: cell-based, Enterobacter aerogenes; conditions: Klebsiella aerogenes
Source text: as §1, §2

MRSA MW2 [1] = assay: Serial passage resistance development; format: cell-based, S. aureus; conditions: 25 days, sub-MIC concentrations
Procedure: Serial passage resistance development. […] Briefly, an extended range of concentrations of nTZDpa was generated by two-fold serial dilution with cation-adjusted Mueller Hinton (CaMH) broth (Difco, Detroit, USA) from three different starting concentrations (20, 24, and 32 μg/mL) covering 0.1875 to 32.0 μg/mL, which extended over three rows of the 96-well plate. Three sets of the extended gradient of nTZDpa were created in the 96-well plate to provide triplicates of the experiment. […] MRSA MW2 overnight cultures were adjusted to 1×10^6 CFU/mL in CaMH broth, and 50 μL of the diluted cultures were dispensed into the 96-well plates containing 50 μL of the extended gradient of antibiotics. After incubation for 24 h at 35° C., bacterial growth was determined by measuring optical density at 600 nm using a SpectraMax plate reader (Molecular Devices, Sunnyvale, Calif.), and growth was defined as an optical density reading of ≥0.1. Bacterial cells growing at the highest concentration of the antimicrobial (just below the MIC) were diluted 1:1000 in CaMH broth and then used to inoculate the next day's serial-passage plate. The remaining bacterial cells were stored at −80° C. in CaMH broth with 16% glycerol. This process was repeated for 25 days.

S. aureus (MRSA) MW2 = assay: Minimal inhibitory concentration (MIC) assay, micro-dilution; format: cell-based; conditions: Staphylococcus aureus, MRSA, read-out: Minimum inhibitory concentration
Source text: as §1, §2

S. aureus ATCC 29213 = assay: MIC assay; format: cell-based; conditions: Staphylococcus aureus, ATCC29213, read-out: Minimum inhibitory concentration
Source text: as §1, §2

[2] = tested on: exponential-phase MRSA MW2; assay: Killing kinetics assay; format: cell-based, S. aureus; conditions: 32 μg/ml (32× MIC), after 4 hours
Procedure: Killing kinetics assay. An MRSA MW2 overnight culture was diluted 1:10,000 in 25 mL TSB (˜10^5 CFU/mL) in a 250 mL flask and incubated at 37° C. with shaking at 200 rpm for 4.5 h until it reached exponential-phase (˜2×10^7 CFU/mL). 1 mL of the exponential phase cell culture was mixed with 1 mL of pre-warmed TSB containing twice the desired concentrations of antibiotics in a 96-well assay block (Corning Costar 3960). The assay block was incubated at 37° C. with shaking at 200 rpm. At every hour, 400 μl aliquots were taken, washed once with phosphate buffered saline (PBS), serially diluted and spot-plated onto tryptic soy agar (TSA, BD) plates. After incubation at 37° C. for overnight, colonies were counted to enumerate the number of cells. These experiments were conducted in biological triplicate.

MRSA MW2 [3] = assay: Antibiotic synergy test (checkerboard); format: cell-based, S. aureus; conditions: nTZDpa in combination with the named antibiotic, synergy if FICI ≤ 0.5
Procedure: Antibiotic synergy test. Antibiotic synergism was evaluated by the checkerboard method. Briefly, 2-fold serial dilutions of nTZDpa were combined with 2-fold serial dilutions of each other antibiotic, which created an 8×8 matrix in a 96-well microtiter plate. The fractional inhibitory concentration index (FICI) was calculated as follows: FICI=MIC of compound A in combination/MIC of compound A alone+MIC of compound B in combination/MIC of compound B alone. The interaction between two compounds was defined, as follows: synergy if FICI≤0.5, no interaction if 0.5<FICI≤4, and antagonism if FICI>4.

MRSA MW2 [4] = assay: Deep-seated mouse thigh infection model; format: in vivo; conditions: vancomycin 25 mg/kg i.p., gentamicin 30 mg/kg s.c., nTZDpa 50 mg/kg i.p., 5 days
Procedure: Deep-seated mouse thigh infection model. In vivo efficacy of nTZDpa alone or in combination with gentamicin against MRSA persisters was evaluated by a previously described neutropenic mouse thigh infection model with modifications. Six-week-old female CD-I mice (20-25 g, Charles River Laboratories, Wilmington, Mass., USA) were obtained from Charles River Laboratories (Wilmington, Mass., USA). The CD-I mice were rendered neutropenic by administering 150 mg/kg and 100 mg/kg of cyclophosphamide intraperitoneally (i.p.) at 4 days and 1 day before infection, respectively. On the day of infection, overnight culture of MRSA MVV2 was washed 3-time with sterile saline and diluted to 10^7 CFU/ml in the saline. 50 μl of the diluted culture (5×10^5 CFU per mouse) was injected to the right thigh of each mouse. nTZDpa was dissolved in Kolliphor EL (Sigma-Aldrich, St Louis, Mo., USA)/ethanol 1:1 and then diluted 1:10 in saline to a final concentration of 50 mg/kg. At 24 h post-infection, groups of mice (n=10) were treated with 30 mg/kg gentamicin subcutaneously (s.c.) every 12 h, 25 mg/kg vancomycin i.p. every 24 h, 50 mg/kg nTZPpa i.p. every 24 h, or the combination of 50 mg/kg nTZDpa i.p. every 24 h and 30 mg/kg gentamicin s.c. every 12 h for 5 days. Control mice were injected with 250 μl of 10% Kolliphor EL/ethanol in saline i.p. every 24 h for 5 days. Mice were euthanized at 96 h post-infection. Blood was collected by cardiac puncture, and the infected thighs were aseptically excised, weighed, and stored at 4° C. until homogenization. To evaluate hepatic and renal toxicities, the levels of alanine aminotransferase and blood urea nitrogen were analyzed with commercially available kits, following the manufacturer's protocol (Pointe Scientific, Canton, Mich., USA). Thighs were homogenized in PBS, serially diluted with PBS, and spot-plated on TSA plates. […] Statistical significance among each group was analyzed by one-way ANOVA with post-hoc Tukey test using PASW Statistics 18 (SPSS Inc. Chicago, Ill., USA).

Work on O=C(O)c1cn(C2CC2)c2cc(N3CCNCC3)c(F)cc2c1=O [Ciprofloxacin, ciprofloxacin] yielded an MIC (S. aureus ATCC 33591; ATCC33591, S. aureus ATCC 33591, read-out: Minimum inhibitory concentration) of 0.25 µg/mL (≈ 0.754 µM), an MIC (S. aureus JE2; S. aureus JE2, read-out: Minimum inhibitory concentration) of 16 µg/mL (≈ 48.3 µM) and an MIC (S. aureus NCTC 8325; NCTC8325, S. aureus NCTC 8325, read-out: Minimum inhibitory concentration) of 0.125 µg/mL (≈ 0.377 µM). For the same compound, the MIC (S. aureus Newman; S. aureus Newman) was 0.25 µg/mL (≈ 0.754 µM), the MIC (S. aureus VRS1; S. aureus VRS1, read-out: Minimum inhibitory concentration) was 64 µg/mL (≈ 193 µM) and the MIC (E. faecium C68; E. faecium C68, read-out: Minimum inhibitory concentration) was over 64 µg/mL. It also gave an MIC (E. faecium WB312; E. faecium WB312, read-out: Minimum inhibitory concentration) of 32 µg/mL (≈ 96.6 µM), an MIC (E. faecium WC196; E. faecium WC196, read-out: Minimum inhibitory concentration) of 1 µg/mL (≈ 3.02 µM) and an MIC (E.faecium E007; E.faecium E007, read-out: Minimum inhibitory concentration) of over 64 µg/mL. For the same compound, the MIC (K. pneumoniae WGLW2; K. pneumoniae WGLW2, read-out: Minimum inhibitory concentration) was 0.031 µg/mL (≈ 0.0936 µM), the MIC (A. baumannii ATCC 17978; ATCC17978, A. baumannii ATCC 17978, read-out: Minimum inhibitory concentration) was 0.25 µg/mL (≈ 0.754 µM) and the MIC (P. aeruginosa PA14; P. aeruginosa PA14, read-out: Minimum inhibitory concentration) was 0.063 µg/mL (≈ 0.19 µM). For the same compound, the MIC (E. aerogenes ATCC 13048; ATCC13048, E. aerogenes ATCC 13048, read-out: Minimum inhibitory concentration) was 0.031 µg/mL (≈ 0.0936 µM) and the “increase of MIC over wild-type after serial passage” value (MRSA MW2 [1]) was 32 fold.

CN[C@H](CC(C)C)C(=O)N[C@H]1C(=O)N[C@@H](CC(N)=O)C(=O)N[C@H]2C(=O)N[C@H]3C(=O)N[C@H](C(=O)N[C@H](C(=O)O)c4cc(O)cc(O)c4-c4cc3ccc4O)[C@H](O)c3ccc(c(Cl)c3)Oc3cc2cc(c3O[C@@H]2O[C@H](CO)[C@@H](O)[C@H](O)[C@H]2O[C@H]2C[C@](C)(N)[C@H](O)[C@H](C)O2)Oc2ccc(cc2Cl)[C@H]1O [Vancomycin, vancomycin] was tested, and the MIC (S. aureus (MRSA) MW2) was 1 µg/mL (≈ 0.69 µM), the MIC (S. aureus ATCC 29213) was 1 µg/mL (≈ 0.69 µM) and the MIC (S. aureus ATCC 33591; ATCC33591, read-out: Minimum inhibitory concentration) was 2 µg/mL (≈ 1.38 µM). It also gave an MIC (S. aureus JE2; JE2, read-out: Minimum inhibitory concentration) of 1 µg/mL (≈ 0.69 µM), an MIC (S. aureus NCTC 8325; NCTC8325, read-out: Minimum inhibitory concentration) of 1 µg/mL (≈ 0.69 µM) and an MIC (S. aureus Newman; NEWMAN) of 2 µg/mL (≈ 1.38 µM). It also gave an MIC (S. aureus VRS1; VRS1, read-out: Minimum inhibitory concentration) of over 64 µg/mL, an MIC (E. faecium C68; C68, read-out: Minimum inhibitory concentration) of 64 µg/mL (≈ 44.2 µM) and an MIC (E. faecium WB312; WB312, read-out: Minimum inhibitory concentration) of 16 µg/mL (≈ 11 µM). It also gave an MIC (E. faecium WC196; WC196, read-out: Minimum inhibitory concentration) of 64 µg/mL (≈ 44.2 µM), an MIC (E.faecium E007; E007, read-out: Minimum inhibitory concentration) of 1 µg/mL (≈ 0.69 µM) and an MIC (K. pneumoniae WGLW2; WGLW2, read-out: Minimum inhibitory concentration) of over 64 µg/mL. The MIC (A. baumannii ATCC 17978; ATCC17978, read-out: Minimum inhibitory concentration) was over 64 µg/mL, the MIC (P. aeruginosa PA14; PA14, read-out: Minimum inhibitory concentration) was over 64 µg/mL and the MIC (E. aerogenes ATCC 13048; ATCC13048, read-out: Minimum inhibitory concentration) was over 64 µg/mL. The decrease in viability [2] was 2 log, the “FICI (fractional inhibitory concentration index)” value (MRSA MW2 [3]) was 1 and the “MRSA CFUs / viability of persisters in thigh, single agent” value (MRSA MW2 [4]) was “neither vancomycin nor gentamicin reduced MRSA CFUs”.
